Data from publication PMC6917776, “Discovery of a chemical probe for PRDM9” (Nature Communications, 2019).

Key:
Assay in all cases: CelltiterGlo viability cell assay
Format in all cases: cell-based
HCC1806 = conditions: up to 30 μM; days 3 and 6; Prdm9 expressing line
Method: (§1) Supplementary Figure 13. […] Viability of
(§2) (a) Multiple Myeloma lines and (b) Breast Cancer cell lines following 3 or 6 days treatment with […]
(§3) manufacturer’s instructions as described in the Supplementary methods. Data are normalized to DMSO control. N=3 biological replicates, +/- SEM. Source data are provided as a Source Data […]
(§4) CelltiterGlo viability cell assay
(§5) Cells were seeded in 96 well plates at per-well densities of 10000 (MDA-MB436, ATCC-HTB130), 15000 (8226, kind gift from Rodger Tiedemann, Princess Margaret Cancer Centre), […]
(§6) kind gift from Rodger Tiedemann, Princess Margaret Cancer Centre) and 50000 (CAL851, kind gift from Mathieu Lupien, Princess Margaret Cancer Centre) and were treated at increasing concentrations of compounds ranging from 0.01 μM to 30 μM and assessed for proliferation using CelltiterGlo (Promega) following manufacturer’s instructions, as readout on days 3 and 6 as indicated. All cell lines were mycoplasma negative, as determined by MycoAlert™ Mycoplasma Detection Kit(Lonza). […]

RPMI-8226 = conditions: up to 30 μM; days 3 and 6; matched control line
Method: as §1, §2, §3, §4, §5, §6

HCC1143 = conditions: up to 30 μM; days 3 and 6; matched control line
Method: as §1, §2, §3, §4, §5, §6

CAL851 = conditions: up to 30 μM; days 3 and 6; Prdm9 expressing line
Method: as §1, §2, §3, §4, §5, §6

MDA-MB-436 = conditions: up to 30 μM; days 3 and 6; matched control line
Method: as §1, §2, §3, §4, §5, §6

SKMM2 = conditions: up to 30 μM; days 3 and 6; Prdm9 expressing line
Method: as §1, §2, §3, §4, §5, §6

Measured: Effect on proliferation (in words)

COc1cc(OC)cc(-c2noc(N3CCN(C)C4(CCN(c5ccnc(C)c5)CC4)C3)n2)c1 [MRK-740]
did not have any significant effect: all assays above

COc1cc(OC)cc(-c2noc(N3CCN(C)C4(CCN(c5ccccc5)CC4)C3)n2)c1 [MRK-740-NC]
did not have any significant effect: all assays above
